Laboratory results from ChEMBL document CHEMBL1201862, “PubChem BioAssay data set” (2004).
Each block holds one compound with its values, some of them ahead of it. Calls of active or inactive are those of the source.

Assays:
[1] = target: T1, Mannose-6-phosphate isomerase (Homo sapiens, UniProt P34949); experiment: phosphomannose isomerase inhibition – biochemical, fluorescence intensity, confirmation (AID 1535)
T1 sequence (P34949 whole entry): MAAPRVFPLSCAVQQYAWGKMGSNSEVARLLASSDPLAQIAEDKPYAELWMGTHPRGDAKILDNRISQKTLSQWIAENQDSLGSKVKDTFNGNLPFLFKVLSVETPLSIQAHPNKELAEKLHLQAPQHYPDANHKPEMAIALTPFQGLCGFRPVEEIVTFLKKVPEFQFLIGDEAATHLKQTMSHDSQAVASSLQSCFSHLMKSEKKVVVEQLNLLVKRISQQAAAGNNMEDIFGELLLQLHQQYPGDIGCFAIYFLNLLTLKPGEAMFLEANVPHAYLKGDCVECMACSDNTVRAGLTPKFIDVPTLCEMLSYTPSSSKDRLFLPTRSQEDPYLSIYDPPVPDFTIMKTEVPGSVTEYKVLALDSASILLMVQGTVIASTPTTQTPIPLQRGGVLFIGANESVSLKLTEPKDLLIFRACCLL

[2] = target: Phosphomannomutase 2 (Homo sapiens, UniProt O15305); experiment: Counter screen SAR assay for PMM2 inhibitors via a fluorescence intensity assay. [Related pubchem assays (depositor defined):AID1545, AID1574]
[3] = target: Phosphoethanolamine/phosphocholine phosphatase (Homo sapiens, UniProt Q8TCT1); experiment: SAR assay for compounds that inhibit PHOSPHO1. [Related pubchem assays (depositor defined):AID1545, AID1565, AID1574]
[4] = target: Nucleotide-binding oligomerization domain-containing protein 1 (Homo sapiens, UniProt Q9Y239); experiment: SAR analysis of compounds that inhibit NOD1 - Set 3. [Related pubchem assays (depositor defined):AID1566, AID1575, AID1578, AID1849, AID1852, AID2333, AID2335, AID2466]; type: functional
[5] = target: Tumor necrosis factor (Homo sapiens, UniProt P01375); experiment: analog potency on TNFa NF-kB signaling – cell-based, set 3, SAR follow-up (AID 2801); type: functional
[6] = tested on: HEK293; experiment: SAR analysis of compounds that are cytotoxic to HEK293 - Set 3. [Related pubchem assays (depositor defined):AID1575, AID1578, AID1848, AID1849, AID2001, AID2333, AID2334, AID2335, AID2337, AID2469]; type: functional, cell-based; conditions: Homo sapiens
[7] = target: Nucleotide-binding oligomerization domain-containing protein 2 (Homo sapiens, UniProt Q9HC29); experiment: inhibition of MDP-driven NOD2 NF-kB reporter – cell-based, set 3, SAR follow-up (AID 2799); type: functional
[8] = target: Tyrosine-protein phosphatase non-receptor type 7 (Homo sapiens, UniProt P35236); type: functional
[9] = target: T2, Tyrosine-protein phosphatase non-receptor type 22 (Homo sapiens, UniProt Q9Y2R2); type: functional
T2 sequence (Q9Y2R2 whole entry): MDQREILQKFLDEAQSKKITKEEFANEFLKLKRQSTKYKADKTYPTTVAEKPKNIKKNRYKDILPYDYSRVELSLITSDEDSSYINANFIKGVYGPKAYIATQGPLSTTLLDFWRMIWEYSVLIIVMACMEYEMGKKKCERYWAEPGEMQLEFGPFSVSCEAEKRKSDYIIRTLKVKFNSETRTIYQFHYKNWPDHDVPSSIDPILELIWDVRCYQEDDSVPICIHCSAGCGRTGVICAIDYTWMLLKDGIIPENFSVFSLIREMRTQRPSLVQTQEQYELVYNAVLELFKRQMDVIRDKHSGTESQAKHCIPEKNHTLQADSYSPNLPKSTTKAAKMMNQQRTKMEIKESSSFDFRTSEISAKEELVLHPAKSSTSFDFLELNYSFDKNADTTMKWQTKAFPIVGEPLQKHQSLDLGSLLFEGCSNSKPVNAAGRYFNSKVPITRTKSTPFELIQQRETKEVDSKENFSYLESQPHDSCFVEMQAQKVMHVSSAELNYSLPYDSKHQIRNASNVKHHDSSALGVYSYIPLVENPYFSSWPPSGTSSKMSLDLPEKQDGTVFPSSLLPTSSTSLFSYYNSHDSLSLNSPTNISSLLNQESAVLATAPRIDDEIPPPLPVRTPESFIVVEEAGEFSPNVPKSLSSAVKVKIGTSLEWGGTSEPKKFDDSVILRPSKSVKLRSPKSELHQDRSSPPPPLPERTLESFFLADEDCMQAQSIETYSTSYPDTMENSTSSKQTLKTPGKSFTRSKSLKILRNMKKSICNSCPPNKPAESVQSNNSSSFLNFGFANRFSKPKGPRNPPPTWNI

[10] = target: T2, Tyrosine-protein phosphatase non-receptor type 22; type: functional; remark: listed apart in the source
[11] = target: Intestinal-type alkaline phosphatase (Homo sapiens, UniProt P09923); experiment: activation of human intestinal alkaline phosphatase – biochemical, dose response (AID 488873); type: functional
[12] = target: Intestinal-type alkaline phosphatase (Mus musculus, UniProt P24822); experiment: PubChem AID 488785; type: functional
[13] = target: T3, Alkaline phosphatase, tissue-nonspecific isozyme (Homo sapiens, UniProt P05186); experiment: TNAP enzyme inhibition by screening hits, dose response, selectivity assay for mouse IAP inhibitor project, biochemical, human TNAP, uHTS hits (AID 488906); type: functional
T3 sequence (P05186 whole entry): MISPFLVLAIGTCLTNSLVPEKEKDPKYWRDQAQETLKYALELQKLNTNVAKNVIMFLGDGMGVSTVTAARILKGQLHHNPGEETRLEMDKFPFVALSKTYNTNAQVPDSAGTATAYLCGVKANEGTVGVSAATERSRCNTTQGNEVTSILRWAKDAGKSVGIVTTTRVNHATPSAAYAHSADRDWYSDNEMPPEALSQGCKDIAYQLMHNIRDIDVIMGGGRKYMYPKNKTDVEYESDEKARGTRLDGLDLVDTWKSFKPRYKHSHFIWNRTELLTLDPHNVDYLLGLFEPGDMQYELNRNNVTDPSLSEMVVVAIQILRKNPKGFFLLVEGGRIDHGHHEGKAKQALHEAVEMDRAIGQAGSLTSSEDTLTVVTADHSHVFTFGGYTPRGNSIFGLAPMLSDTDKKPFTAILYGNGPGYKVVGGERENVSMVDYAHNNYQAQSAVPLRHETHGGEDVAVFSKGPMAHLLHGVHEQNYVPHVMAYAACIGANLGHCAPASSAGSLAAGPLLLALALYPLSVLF

[14] = IC50 of Artemis nuclease activity blockers – biochemical, fluorescence intensity, dose response (AID 720701); type: functional;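 note: Artemis endonuclease enzyme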

Tyrosine-protein phosphatase non-receptor type 7, sequence (P35236 whole entry): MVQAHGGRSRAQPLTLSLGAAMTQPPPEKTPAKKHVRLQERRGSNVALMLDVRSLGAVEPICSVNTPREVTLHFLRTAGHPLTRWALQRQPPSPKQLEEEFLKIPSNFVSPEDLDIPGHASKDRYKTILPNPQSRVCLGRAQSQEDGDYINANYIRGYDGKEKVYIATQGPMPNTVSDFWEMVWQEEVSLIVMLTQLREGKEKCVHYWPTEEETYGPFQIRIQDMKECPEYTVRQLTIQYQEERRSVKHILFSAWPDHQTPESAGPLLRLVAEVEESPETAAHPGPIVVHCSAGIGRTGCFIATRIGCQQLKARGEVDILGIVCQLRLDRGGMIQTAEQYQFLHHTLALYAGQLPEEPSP
Intestinal-type alkaline phosphatase (Homo sapiens, UniProt P09923), sequence (P09923 whole entry): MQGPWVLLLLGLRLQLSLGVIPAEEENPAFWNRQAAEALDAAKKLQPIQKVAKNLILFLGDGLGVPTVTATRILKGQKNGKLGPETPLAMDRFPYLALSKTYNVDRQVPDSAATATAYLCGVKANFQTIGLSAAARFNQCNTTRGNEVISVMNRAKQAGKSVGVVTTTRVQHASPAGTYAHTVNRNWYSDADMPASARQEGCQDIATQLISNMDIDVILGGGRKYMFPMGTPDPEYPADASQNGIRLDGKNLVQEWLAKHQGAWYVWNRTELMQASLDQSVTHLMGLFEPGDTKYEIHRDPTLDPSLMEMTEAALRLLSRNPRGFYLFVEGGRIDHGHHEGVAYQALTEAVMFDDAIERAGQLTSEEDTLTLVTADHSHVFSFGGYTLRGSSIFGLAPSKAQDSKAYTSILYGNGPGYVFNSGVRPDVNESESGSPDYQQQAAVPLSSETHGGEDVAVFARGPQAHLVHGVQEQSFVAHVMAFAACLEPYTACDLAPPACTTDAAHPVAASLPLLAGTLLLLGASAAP
Tumor necrosis factor, sequence (P01375 whole entry): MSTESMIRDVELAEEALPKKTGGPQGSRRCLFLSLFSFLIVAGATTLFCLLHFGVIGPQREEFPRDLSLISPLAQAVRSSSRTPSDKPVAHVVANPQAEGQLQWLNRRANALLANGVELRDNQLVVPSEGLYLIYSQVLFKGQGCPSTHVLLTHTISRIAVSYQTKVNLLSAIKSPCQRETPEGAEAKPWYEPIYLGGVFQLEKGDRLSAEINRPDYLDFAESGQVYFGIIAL
Nucleotide-binding oligomerization domain-containing protein 2, sequence (Q9HC29 whole entry, the tested form may be a part): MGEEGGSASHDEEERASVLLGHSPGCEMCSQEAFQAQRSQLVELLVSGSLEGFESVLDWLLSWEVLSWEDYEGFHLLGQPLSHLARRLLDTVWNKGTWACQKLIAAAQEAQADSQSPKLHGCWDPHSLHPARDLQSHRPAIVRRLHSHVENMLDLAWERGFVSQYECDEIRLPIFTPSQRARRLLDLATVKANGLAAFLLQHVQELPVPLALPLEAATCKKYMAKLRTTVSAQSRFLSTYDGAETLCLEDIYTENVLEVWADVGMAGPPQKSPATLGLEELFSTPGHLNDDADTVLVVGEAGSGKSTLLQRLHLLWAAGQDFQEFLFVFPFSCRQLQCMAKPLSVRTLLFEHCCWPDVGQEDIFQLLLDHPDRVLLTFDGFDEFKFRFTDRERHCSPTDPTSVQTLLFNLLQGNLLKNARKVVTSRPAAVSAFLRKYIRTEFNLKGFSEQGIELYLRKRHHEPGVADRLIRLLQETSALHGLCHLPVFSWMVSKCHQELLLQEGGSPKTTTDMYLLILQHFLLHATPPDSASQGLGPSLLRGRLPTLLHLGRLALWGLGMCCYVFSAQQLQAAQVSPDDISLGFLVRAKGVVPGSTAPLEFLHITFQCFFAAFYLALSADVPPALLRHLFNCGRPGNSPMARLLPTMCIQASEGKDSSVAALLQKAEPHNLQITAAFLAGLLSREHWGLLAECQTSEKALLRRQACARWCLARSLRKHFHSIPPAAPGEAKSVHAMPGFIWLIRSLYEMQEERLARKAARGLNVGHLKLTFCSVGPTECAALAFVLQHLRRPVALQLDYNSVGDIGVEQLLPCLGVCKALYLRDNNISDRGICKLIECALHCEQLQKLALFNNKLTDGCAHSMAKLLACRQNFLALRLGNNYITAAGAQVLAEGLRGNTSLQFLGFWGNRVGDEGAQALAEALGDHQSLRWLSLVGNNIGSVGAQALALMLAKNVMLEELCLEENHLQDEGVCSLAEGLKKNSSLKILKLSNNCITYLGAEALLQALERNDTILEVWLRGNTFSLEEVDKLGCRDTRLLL
Intestinal-type alkaline phosphatase (Mus musculus, UniProt P24822), sequence (P24822 whole entry): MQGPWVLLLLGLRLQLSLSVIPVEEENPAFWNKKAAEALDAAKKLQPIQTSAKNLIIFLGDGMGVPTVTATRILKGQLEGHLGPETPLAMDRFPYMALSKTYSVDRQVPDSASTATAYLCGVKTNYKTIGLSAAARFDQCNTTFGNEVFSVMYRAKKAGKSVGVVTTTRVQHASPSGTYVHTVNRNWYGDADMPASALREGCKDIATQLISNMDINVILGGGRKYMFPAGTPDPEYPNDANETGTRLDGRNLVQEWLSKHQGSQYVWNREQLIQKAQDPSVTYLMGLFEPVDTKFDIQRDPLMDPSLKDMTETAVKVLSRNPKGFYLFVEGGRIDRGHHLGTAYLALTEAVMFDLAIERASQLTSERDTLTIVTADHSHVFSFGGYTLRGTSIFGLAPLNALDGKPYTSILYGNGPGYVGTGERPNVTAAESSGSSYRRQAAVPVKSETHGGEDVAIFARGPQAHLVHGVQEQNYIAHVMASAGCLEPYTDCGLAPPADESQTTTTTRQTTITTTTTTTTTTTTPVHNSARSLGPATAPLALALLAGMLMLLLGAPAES
Phosphomannomutase 2, sequence (O15305 whole entry): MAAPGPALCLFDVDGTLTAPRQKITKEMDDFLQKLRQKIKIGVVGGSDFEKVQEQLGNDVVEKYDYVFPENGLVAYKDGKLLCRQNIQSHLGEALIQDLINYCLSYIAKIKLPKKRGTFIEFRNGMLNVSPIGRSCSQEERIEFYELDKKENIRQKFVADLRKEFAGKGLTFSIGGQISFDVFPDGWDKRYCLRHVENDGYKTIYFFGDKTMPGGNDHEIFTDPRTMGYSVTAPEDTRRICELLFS
Phosphoethanolamine/phosphocholine phosphatase, sequence (Q8TCT1 whole entry, the tested form may be a part): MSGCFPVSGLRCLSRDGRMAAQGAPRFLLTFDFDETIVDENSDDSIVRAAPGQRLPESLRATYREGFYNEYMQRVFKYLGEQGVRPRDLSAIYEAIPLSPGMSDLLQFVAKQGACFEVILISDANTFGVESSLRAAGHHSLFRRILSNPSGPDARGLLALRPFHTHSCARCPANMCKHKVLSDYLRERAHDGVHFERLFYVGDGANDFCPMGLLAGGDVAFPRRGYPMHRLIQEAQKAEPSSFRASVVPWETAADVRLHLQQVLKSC
Nucleotide-binding oligomerization domain-containing protein 1, sequence (Q9Y239 whole entry, the tested form may be a part): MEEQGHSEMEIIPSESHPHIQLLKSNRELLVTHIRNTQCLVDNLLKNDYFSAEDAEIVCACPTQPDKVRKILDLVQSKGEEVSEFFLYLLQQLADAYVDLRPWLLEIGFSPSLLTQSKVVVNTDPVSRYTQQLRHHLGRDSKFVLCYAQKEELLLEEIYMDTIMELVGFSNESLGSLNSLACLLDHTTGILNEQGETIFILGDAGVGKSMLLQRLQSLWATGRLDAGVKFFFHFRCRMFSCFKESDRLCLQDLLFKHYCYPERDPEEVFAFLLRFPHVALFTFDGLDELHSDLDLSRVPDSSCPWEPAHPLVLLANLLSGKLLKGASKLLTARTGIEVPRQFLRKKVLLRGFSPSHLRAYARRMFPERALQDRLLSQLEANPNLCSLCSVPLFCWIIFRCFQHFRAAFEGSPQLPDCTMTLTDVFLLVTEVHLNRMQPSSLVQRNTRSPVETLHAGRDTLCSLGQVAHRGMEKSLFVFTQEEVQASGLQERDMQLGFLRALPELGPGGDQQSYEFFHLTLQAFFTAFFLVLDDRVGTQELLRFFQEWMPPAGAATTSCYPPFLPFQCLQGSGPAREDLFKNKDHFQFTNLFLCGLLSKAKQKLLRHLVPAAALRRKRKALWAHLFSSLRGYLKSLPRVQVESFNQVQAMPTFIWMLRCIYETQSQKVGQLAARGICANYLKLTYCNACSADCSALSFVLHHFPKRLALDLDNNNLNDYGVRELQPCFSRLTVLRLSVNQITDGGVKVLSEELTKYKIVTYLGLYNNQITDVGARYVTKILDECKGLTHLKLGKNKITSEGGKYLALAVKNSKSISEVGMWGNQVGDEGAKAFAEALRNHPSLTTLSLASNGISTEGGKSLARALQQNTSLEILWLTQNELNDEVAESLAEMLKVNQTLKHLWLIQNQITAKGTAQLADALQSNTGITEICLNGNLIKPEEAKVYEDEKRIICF

IC50 [1]: > 50 µM (inactive)
IC50 [2]: > 100 µM (inactive)
IC50 [3]: 3.6 µM (inactive)
Compound: O=C1c2ccccc2C(=O)c2c1ccc1c(=O)n(-c3cccc([N+](=O)[O-])c3)sc21

Compound: CN(C(=O)c1ccccc1)C(c1ccccc1)c1c[nH]c2ccccc12 (centres undefined)
IC50 [4]: > 20 µM (inactive)
IC50 [5]: > 20 µM (inactive)
IC50 [6]: > 20 µM (inactive)
IC50 [7]: 12.4 µM (active)

IC50 [8]: > 79.4 µM (inactive)
IC50 [9]: > 79.4 µM (inactive)
IC50 [10]: > 79.4 µM (inactive)
Compound: O=C1C=C(NCCNc2c(F)c(F)c(CO)c(F)c2F)CCC1

EC50 [11]: > 100 µM (inactive)
IC50 [12]: 13.4 µM (active)
IC50 [13]: 24.3 µM (active)
IC50 [14]: > 20 µM (inactive)
Compound: O=C(O)CC(C(=O)O)N1C(=O)/C(=C/c2ccc(-c3nc4ccccc4s3)o2)SC1=S (centres undefined)
